Measured values as given in PMC7990796, “Efficacy of a Combined Antiplatelet Therapy Is Not Affected by a Simultaneous Binding of Cangrelor and PSB 0777 to Albumin” (Frontiers in Pharmacology, 2021).
Where two headings read alike, the source gives them in different places.

Columns and labels:
human serum albumin [1] = molecular target: T1, human serum albumin (Homo sapiens, UniProt P02768); assay: Synchronous fluorescence spectra of HSA; type: binding; parameters: purchased Sigma (St. Louis, MO, United States); conditions: 0‒38.5 μM
T1 sequence (P02768 25-609): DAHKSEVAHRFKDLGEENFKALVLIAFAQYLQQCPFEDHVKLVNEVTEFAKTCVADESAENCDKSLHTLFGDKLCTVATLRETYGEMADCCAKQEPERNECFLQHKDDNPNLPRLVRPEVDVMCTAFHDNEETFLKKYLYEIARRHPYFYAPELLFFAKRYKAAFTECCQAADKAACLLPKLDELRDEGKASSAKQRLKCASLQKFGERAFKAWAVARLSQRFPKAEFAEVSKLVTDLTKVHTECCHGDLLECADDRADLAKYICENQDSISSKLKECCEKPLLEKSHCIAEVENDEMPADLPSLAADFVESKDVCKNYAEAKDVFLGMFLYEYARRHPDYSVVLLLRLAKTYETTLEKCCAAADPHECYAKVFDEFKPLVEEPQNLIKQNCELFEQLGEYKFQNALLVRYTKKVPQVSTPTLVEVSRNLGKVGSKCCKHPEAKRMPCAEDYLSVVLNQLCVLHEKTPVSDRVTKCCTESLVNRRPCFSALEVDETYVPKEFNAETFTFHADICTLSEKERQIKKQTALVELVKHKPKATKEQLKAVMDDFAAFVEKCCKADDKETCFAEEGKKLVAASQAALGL
Procedure: (§1) The fluorescence measurements for albumin-drug complexes were performed using a LS50B spectrofluorometer (Perkin Elmer, Waltham, MA, United States) equipped with 1.0 cm quartz cell. The fluorescence spectra for HSA solution (2.5 µM in 0.1 M phosphate buffer, pH 7.4) were recorded in the range of wavelength from 250 to 500 nm, with the excitation at 280 nm and the emission set at 350 nm. The slit widths for excitation and emission beams were set to 5 and 10 nm, respectively. The Perkin-Elmer FL WinLab software v. 4.00.03 was used to collect the measured data. An appropriate buffer blank spectrum was subtracted from the measured spectra for fluorescence background correction. The optical density of HSA solution was below 0.1 and within the albumin concentration range of 0‐2.5 µM we observed a linear relationship between protein concentration and fluorescence intensity (p < 0.0001, R^2 = 0.995). In consequence, the albumin fluorescence was not corrected for the inner filter effect. All measurements, except a thermodynamic analysis of the binding of antiplatelet compounds to HSA were performed at 25°C after 30 s incubation of a sample with the examined compound. Stock and working solutions of all compounds used in the experiments were prepared in PBS buffer, pH 7.4. The protein concentration was determined by BCA method ([Smith et al., 1985]).
To monitor changes in the polarity around the tyrosine and tryptophan residues of HSA evoked by the examined compounds, the synchronous fluorescence spectra of HSA (Δλ 15 nm and Δλ 60 nm) were recorded in the presence of increasing concentrations of PSB 0777 and cangrelor (0‒38.5 μM with 4 μM intervals).

human serum albumin [2] = molecular target: T1, human serum albumin; assay: Fluorescence quenching of HSA in the presence of a competitor (warfarin or cangrelor); type: binding; parameters: purchased Sigma (St. Louis, MO, United States); conditions: for Kd: mean [95% CI], n = 5–6
Procedure: as §1
[…]. [Chaves et al., 2018]; [Manjushree and Revanasiddappa, 2019]). […].
Furthermore, to determine whether one antiplatelet compound could be displaced from HSA by the other, the binding site marker experiments were repeated, i.e. by titration of HSA with PSB 0777 (0‒38.5 µM) in the presence of 2.5 µM cangrelor, instead of a marker.

human serum albumin [3] = molecular target: T1, human serum albumin; parameters: purchased Sigma (St. Louis, MO, United States); method as in Boncler et al., 2018; Wzorek et al., 2020; conditions: SPR; ref Boncler et al., 2018; Wzorek et al., 2020; read-out: affinity of binding to HSA (SPR); cited from earlier work
human serum albumin [4] = molecular target: T1, human serum albumin; assay: Fluorescence quenching of HSA (Stern-Volmer, saturation binding, van't Hoff analysis); conditions: for Number of binding sites n / Kd: mean [95% CI]; for KA: KA = 1/KD; for decrease of HSA fluorescence: 2.5 µM HSA; for ΔH^θ / ΔS^θ: van't Hoff plot, 292, 302, 312 K
Procedure: The fluorescence measurements for albumin-drug complexes were performed using a LS50B spectrofluorometer (Perkin Elmer, Waltham, MA, United States) equipped with 1.0 cm quartz cell. […] The slit widths for excitation and emission beams were set to 5 and 10 nm, respectively. The Perkin-Elmer FL WinLab software v. 4.00.03 was used to collect the measured data. An appropriate buffer blank spectrum was subtracted from the measured spectra for fluorescence background correction. […] In consequence, the albumin fluorescence was not corrected for the inner filter effect. All measurements, except a thermodynamic analysis of the binding of antiplatelet compounds to HSA were performed at 25°C after 30 s incubation of a sample with the examined compound. Stock and working solutions of all compounds used in the experiments were prepared in PBS buffer, pH 7.4.
To obtain the binding parameters: dissociation constant (KD) and the number of binding sites per protein molecule (n), the experimental data were fit to a saturation binding curve using nonlinear regression analysis.
The free energy change was estimated from the following relationship Eq. 4: ΔG^θ=ΔH^θ−TΔS^θ (4)

[5] = system: platelets (platelet-rich plasma, isolated platelets); assay: Inhibition of ADP-induced platelet activation (P-selectin/CD62P expression, flow cytometry); type: cell-based, human; conditions: 17 nM, 10 μM ADP; for decrease of ADP-dependent platelet activation: n = 5; for inhibition at 0.017 µM: Homo sapiens, Platelet, n = 6
Procedure: Human blood was obtained from consecutively recruited healthy volunteers (simple random non-stratified sampling): four men and seven women; mean age 25 ± 5 years. All individuals provided their written informed consent to participate in the study. The exclusion criteria were the same as described previously ([Wzorek et al., 2020]). The study was approved by the Human Studies Committee of the Medical University of Lodz (Poland) and was conducted in accordance with the guidelines established by the Declaration of Helsinki. Whole blood was collected into polypropylene tubes with a blood-to-acid citrate dextrose solution (ACD) ratio of 6:1 (vol:vol).
Human platelet-rich plasma (PRP) was prepared by centrifuging of anticoagulated whole blood at 190 x g for 12 min at 37°C. Platelet-poor plasma (PPP) was prepared by centrifuging the whole blood fraction left after removal of the PRP at 2500 x g for 12 min at 37°C. Platelet count in PRP was measured with automated haematology analyzer Sysmex XS-800i™ (Sysmex, Kobe, Japan) and adjusted to 1 × 10^8 cells per ml.
Suspensions of isolated platelets were obtained from PRP separated from anticoagulated whole blood containing 50 ng/ml PGE1. PRP was centrifuged at 800 x g for 15 min at 37°C to obtain a platelet pellet. Platelet pellet was immediately suspended in the Tyrode buffer (134 mM NaCl, 12 mM NaHCO3, 2.9 mM KCl, 0.34 mM Na2HPO4, 1 mM MgCl2, 10 mM HEPES, 5 mM glucose, pH 7.4) and diluted to a count 1 × 10^8 per ml, as described above.
The effect of plasma or HSA on inhibition of platelet activation by cangrelor was assessed by two-colour flow cytometry with the use of anti-CD61/PerCP (for platelet gating) and anti-CD62/PE (for detection of activated platelets). The antiplatelet activity of cangrelor was evaluated in PRP and suspensions of isolated platelets, when the effect of plasma was examined, or in isolated platelets containing 4% HSA, when the effect of albumin was studied. […] The activated platelets were stained with antibodies prior to fixation as described previously ([Wzorek et al., 2020]). A total of 10,000 events were acquired in each experiment using a FACSCanto II flow cytometer and surface expression of CD62P (P-selectin) in platelets was analysed using FACS/Diva v. 6.0 software (Becton-Dickinson, Franklin Lakes, NJ, United States).

[6] = system: platelet function in whole blood; parameters: method as in Boncler et al., 2018; conditions: ref Boncler et al., 2018; cited from earlier work
human serum albumin [7] = molecular target: T1, human serum albumin; assay: Surface plasmon resonance binding to immobilized HSA (Biacore X)
Procedure: Briefly, 100 µg of HSA was dissolved in 1 ml of 10 mM sodium acetate buffer, pH 4.0, and immobilized on the flow cell 1 of the sensor chip surface. No protein was immobilized on the flow cell 2, which was used as a control. […] The curves from three independent experiments were analyzed by global curve fitting of the entire data set using the Langmuir binding model with the BIAevaluation 4.1.1 software (Biacore AG, Uppsala, Sweden).

HSA = conditions: 2005, cited from earlier work
[8] = concentration range 0–5 μM, 25°C
[9] = highest drug concentration 38.5 µM, n = 3

SMILES	mean red shift of emission peak (human serum albumin [1]; Δλ 15 nm (tyrosine)) [nm]	mean red shift of emission peak (human serum albumin [1]; Δλ 60 nm (tryptophan)) [nm]	increase of dissociation constant in the presence of competitor compared to control (human serum albumin [2]; competitor warfarin) [fold]	n with competitor (human serum albumin [2]; competitor warfarin 2.5 µM)	n without competitor (human serum albumin [2]; control of the warfarin series)	Number of binding sites n (human serum albumin [4]; 0‒38.5 µM, n = 3)	ΔG^θ (human serum albumin [4]; 292 K) [kcal/mol]	ΔG^θ (human serum albumin [4]; 302 K) [kcal/mol]	KA (human serum albumin [4]; 302 K)	ΔG^θ (human serum albumin [4]; 312 K) [kcal/mol]	KA (human serum albumin [4]; 312 K)	decrease of HSA fluorescence (human serum albumin [4]; [8]) [%]	decrease of HSA fluorescence (human serum albumin [4]; [9]) [%]	ΔH^θ (human serum albumin [4]) [kcal/mol]	ΔS^θ (human serum albumin [4]) [J/mol * K]	further results
Nc1nc(SCCc2ccc(S(=O)(=O)O)cc2)nc2c1ncn2[C@@H]1O[C@H](CO)[C@@H](O)[C@H]1O [PSB 0777]	0.5	0.8	1.4	0.59 [0.19‒0.99]	0.69 [0.51‒0.88]	0.83 [−0.22 to 1.87]	-6.551	-6.733	6.43 [−5.24 to 1.99] × 10^4 [M^−1]	-6.917	7.50 [−0.90 to 3.91] × 10^4 [M^−1]	25	70	-1.21	76.49	increase of dissociation constant in the presence of competitor compared to control (human serum albumin [2]; competitor cangrelor): 1.2 fold; n with competitor (human serum albumin [2]; competitor cangrelor 2.5 µM): 0.65 [0.39‒0.92]; n without competitor (human serum albumin [2]; control of the cangrelor series): 0.61 [0.32‒0.89]; Kd (human serum albumin [3]): 80.6 µM
CSCCNc1nc(SCCC(F)(F)F)nc2c1ncn2[C@@H]1O[C@H](COP(=O)(O)OP(=O)(O)C(Cl)(Cl)P(=O)(O)O)[C@@H](O)[C@H]1O [cangrelor]	0.3	2.1	2	1.39 [−0.07 to 2.85]	1.10 [0.67‒1.52]	0.99 [−0.29 to 2.27]	-6.522	-6.812	10.31 [0.20‒6.97] × 10^4 [M^−1]	-7.101	8.47 [0.19‒5.45] × 10^4 [M^−1]	40	75	1.93	121.01	decrease of ADP-dependent platelet activation ([5]; isolated platelets (compared with PRP)): 95%; decrease of ADP-dependent platelet activation ([5]; platelet-rich plasma): 77%; inhibition at 0.017 µM ([5]; control isolated platelets without HSA): 97%; inhibition at 0.017 µM ([5]; isolated platelets with 4% HSA): 74%; IC50 [6]: 0.017 µM; Kd (human serum albumin [2]; competitor warfarin 2.5 µM, read-out: KD with competitor): 16.8 µM; Kd (human serum albumin [2]; control of the warfarin series, read-out: KD without competitor): 8.3 µM; Kd (human serum albumin [7]; KA (equilibrium association constant), obtained from the binding rate constants): 16.3 µM; koff (human serum albumin [7]; human, pH 7.4): 0.0573 ± 0.000323 s⁻¹; kon (human serum albumin [7]; human, pH 7.4): 2820 ± 1.4e+06 M⁻¹ s⁻¹; Kd (human serum albumin [4]; 0‒38.5 µM, nonlinear regression, n = 3): 10.9 µM; Kd (human serum albumin [4]; 292 K, n = 3): 14.5 µM; Kd (human serum albumin [4]; 302 K, n = 3): 9.7 µM; Kd (human serum albumin [4]; 312 K, n = 3): 11.8 µM
CC(C)Cc1ccc(C(C)C(=O)O)cc1 (centres unmarked) [ibuprofen]	–	–	–	–	–	–	–	–	–	–	–	–	–	–	–	KA (binding constant) reported earlier (HSA; used in the racemic form, ref Dufour and Dangles): 10^5–10^6 M^−1
CC(=O)CC(c1ccccc1)c1c(O)c2ccccc2oc1=O (centres unmarked) [warfarin]	–	–	–	–	–	–	–	–	–	–	–	–	–	–	–	KA reported earlier (HSA; ref Yamasaki et al., 1996, Watanabe et al., 2001, Dufour and Dangles): 10^4–10^5 M^−1
